*1 amine or outer side, *2 acyl side, *3 side chain or, on linkers, in order; H or OH if unused. Where a SMILES comes first, the peptide text is derived from it. Bridges are numbered along the chain shown (N, C = ends). [ ]: non-standard residue; d: D form. ξ: configuration not given here. Trp(1-CH2COOH) = N[C@@H](Cc1cn(CC(=O)O)c2ccccc12)C(=O)O; Phe(3,4,5-F3) = N[C@@H](Cc1cc(F)c(F)c(F)c1)C(=O)O; Phe(3,4-F2) = N[C@@H](Cc1ccc(F)c(F)c1)C(=O)O; NMePhe(4-F) = CN[C@@H](Cc1ccc(F)cc1)C(=O)O; Phe(4-F) = N[C@@H](Cc1ccc(F)cc1)C(=O)O; d(cisHyp) = O=C(O)[C@H]1C[C@@H](O)CN1; Bta = N[C@@H](Cc1csc2ccccc12)C(=O)O; NMeY = CN[C@@H](Cc1ccc(O)cc1)C(=O)O; Hyp = O=C(O)[C@@H]1C[C@@H](O)CN1; NMeF = CN[C@@H](Cc1ccccc1)C(=O)O; X1 = O=C([C@H]1COCCN1[*:1])[*:2]; dNMeF = CN[C@H](Cc1ccccc1)C(=O)O; dHyp = O=C(O)[C@H]1C[C@H](O)CN1; NMeNle = CCCC[C@H](NC)C(=O)O; Pip = O=C(O)[C@@H]1CCCCN1; dPip = O=C(O)[C@H]1CCCCN1; hSer = N[C@@H](CCO)C(=O)O; NMeA = CN[C@@H](C)C(=O)O; Orn = NCCC[C@H](N)C(=O)O; Dab = NCC[C@H](N)C(=O)O; Dap = NC[C@H](N)C(=O)O; ξC = NC(CS)C(=O)O
Biological target: T1, Human PD-L1/PD-1 (Homo sapiens, UniProt Q9NZQ7)
T1 construct: TVMV protease cleavage site (C); made in house; host or cells: HEK293T cells
Test: HTRF Human PD-L1/PD-1 binding assay (PD-1-Ig/PD-L1-His)
Settings: PD-L1-His 10 nM, PD-1-Ig 20 nM; class symbol; read-out: HTRF Human PD-L1/PD-1 Binding Assay IC50 Range
Outline: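 HTRF competition using HEK293T-expressed human PD-1(25-167)-Ig at 20 nM and PD-L1(18-239)-His at 10 nM, compound incubated first with PD-L1 for 15 min, then with PD-1 for 15 min. Signal read as 665/620 nm ratio 30 min after adding Eu anti-Ig and APC anti-His antibodies.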

T1 sequence (Q9NZQ7 with tags, fused parts or gaps): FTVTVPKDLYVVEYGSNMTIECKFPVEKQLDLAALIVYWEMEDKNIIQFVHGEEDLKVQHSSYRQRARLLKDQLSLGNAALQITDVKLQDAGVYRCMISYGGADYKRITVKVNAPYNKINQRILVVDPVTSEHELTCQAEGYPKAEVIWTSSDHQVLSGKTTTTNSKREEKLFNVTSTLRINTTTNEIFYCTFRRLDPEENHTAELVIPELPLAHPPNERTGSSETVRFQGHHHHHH

SMILES | IC50 [nM]
CCCC[C@H]1C(=O)N(C)[C@@H](CCCC)C(=O)N[C@@H](CCC(=O)O)C(=O)N[C@H](C(=O)NCC(N)=O)CSCC(=O)N[C@@H](Cc2ccc(O)cc2)C(=O)N2CCCC[C@H]2C(=O)N[C@@H](CC(=O)O)C(=O)N2CCC[C@H]2C(=O)N[C@@H](CN)C(=O)N[C@@H](CCC(=O)O)C(=O)N2C[C@H](O)C[C@H]2C(=O)N[C@@H](Cc2c[nH]c3ccccc23)C(=O)N[C@@H](CO)C(=O)N[C@@H](Cc2c[nH]c3ccccc23)C(=O)N1C [Example 1521] ({CH2CO}-Y[Pip]DP[Dap]E[Hyp]WSW[NMeNle][NMeNle]ECG-NH2; thioether N-14) | 1 to 9.9
CCCC[C@H]1C(=O)N(C)[C@@H](CCCC)C(=O)N[C@@H](CCCNC(=N)N)C(=O)NC(C(=O)NCC(N)=O)CSCC(=O)N[C@@H](Cc2ccc(O)cc2)C(=O)N(C)[C@@H](C)C(=O)N[C@@H](CC(N)=O)C(=O)N2CCC[C@H]2C(=O)N[C@@H](CC(N)=O)C(=O)N[C@@H](CC(C)C)C(=O)N2CCC[C@H]2C(=O)N[C@@H](Cc2c[nH]c3ccccc23)C(=O)N[C@@H](CCO)C(=O)N[C@@H](Cc2csc3ccccc23)C(=O)N1C (stereo partly drawn) [Example 9129] ({CH2CO}-Y[NMeA]NPNLPW[hSer][Bta][NMeNle][NMeNle]R[ξC]G-NH2; thioether N-14) | 1 to 9.9
CCCC[C@H]1C(=O)N2CCC[C@@H]2C(=O)N[C@@H](CC(=O)O)C(=O)N[C@@H](C(C)C)C(=O)N(C)[C@@H](Cc2ccccc2)C(=O)N[C@@H](CCN)C(=O)N2CCOC[C@@H]2C(=O)N[C@@H](Cc2c[nH]c3ccccc23)C(=O)N[C@@H](Cc2ccc(O)cc2)C(=O)N[C@@H](CC(C)C)C(=O)N[C@H](C(=O)NCC(N)=O)CSCC(=O)N[C@@H](Cc2cc(F)c(F)c(F)c2)C(=O)N(C)[C@@H](Cc2ccc(O)cc2)C(=O)N1C [Example 10622] ({CH2CO}-[Phe(3,4,5-F3)][NMeY][NMeNle][dP]DV[NMeF][Dab][X1]WYLCG-NH2; thioether N-13) | 10 to 99.9
CCCC[C@H]1C(=O)N2CCC[C@@H]2C(=O)N[C@@H](CO)C(=O)N[C@@H](C(C)C)C(=O)N(C)[C@@H](Cc2ccccc2)C(=O)N[C@@H](Cc2ccc(O)cc2)C(=O)N2CCC[C@@H]2C(=O)N[C@@H](Cc2c[nH]c3ccccc23)C(=O)N[C@@H](Cc2ccc(O)cc2)C(=O)N[C@@H](CC(C)C)C(=O)N[C@H](C(=O)NCC(N)=O)CSCC(=O)N[C@@H](Cc2cc(F)c(F)c(F)c2)C(=O)N(C)[C@@H](Cc2ccccc2)C(=O)N1C [Example 10066] ({CH2CO}-[Phe(3,4,5-F3)][NMeF][NMeNle][dP]SV[NMeF]Y[dP]WYLCG-NH2; thioether N-13) | 1 to 9.9
CCCC[C@H]1C(=O)N2C[C@@H](O)C[C@@H]2C(=O)N[C@@H](CC(=O)O)C(=O)N[C@@H](C(C)C)C(=O)N(C)[C@@H](Cc2ccccc2)C(=O)N[C@@H](CCC(=O)O)C(=O)N2CCCC[C@@H]2C(=O)N[C@@H](Cc2c[nH]c3ccccc23)C(=O)N[C@@H](Cc2ccc(O)cc2)C(=O)N[C@@H](CC(C)C)C(=O)N[C@H](C(=O)NCC(N)=O)CSCC(=O)N[C@@H](Cc2cc(F)c(F)c(F)c2)C(=O)N(C)[C@@H](Cc2ccc(F)cc2)C(=O)N1C [Example 10556] ({CH2CO}-[Phe(3,4,5-F3)][NMePhe(4-F)][NMeNle][dHyp]DV[NMeF]E[dPip]WYLCG-NH2; thioether N-13) | 1 to 9.9
CCCC[C@H]1C(=O)N(C)[C@@H](CCCC)C(=O)N[C@@H](CCC(=O)O)C(=O)N[C@H](C(=O)NCC(N)=O)CSCC(=O)N[C@@H](Cc2ccc(O)cc2)C(=O)N(C)[C@@H](C)C(=O)N[C@@H](CC(N)=O)C(=O)N2CCC[C@H]2C(=O)N[C@@H](CN)C(=O)N[C@@H](CCC(N)=O)C(=O)N2C[C@H](O)C[C@H]2C(=O)N[C@@H](Cc2c[nH]c3ccccc23)C(=O)N[C@@H](CO)C(=O)N[C@@H](Cc2c[nH]c3ccccc23)C(=O)N1C [Example 5208] ({CH2CO}-Y[NMeA]NP[Dap]Q[Hyp]WSW[NMeNle][NMeNle]ECG-NH2; thioether N-14) | 1 to 9.9
CCCC[C@H]1C(=O)N2CCC[C@@H]2C(=O)N[C@@H](CC(=O)O)C(=O)N[C@@H](C(C)C)C(=O)N(C)[C@@H](Cc2ccc(F)cc2)C(=O)N[C@@H](CCC(=O)O)C(=O)N2CCC[C@@H]2C(=O)N[C@@H](Cc2c[nH]c3ccccc23)C(=O)N[C@@H](Cc2ccc(O)cc2)C(=O)N[C@@H](CC(C)C)C(=O)N[C@H](C(=O)NCC(N)=O)CSCC(=O)N[C@@H](Cc2ccc(F)cc2)C(=O)N(C)[C@@H](Cc2ccccc2)C(=O)N1C [Example 10111] ({CH2CO}-[Phe(4-F)][NMeF][NMeNle][dP]DV[NMePhe(4-F)]E[dP]WYLCG-NH2; thioether N-13) | 1 to 9.9
CCCC[C@H]1C(=O)N2C[C@@H](O)C[C@@H]2C(=O)N[C@@H](CC(=O)O)C(=O)N[C@@H](C(C)C)C(=O)N(C)[C@@H](Cc2ccccc2)C(=O)N[C@@H](Cc2ccc(O)cc2)C(=O)N2C[C@@H](O)C[C@@H]2C(=O)N[C@@H](Cc2c[nH]c3ccccc23)C(=O)N[C@@H](Cc2ccc(O)cc2)C(=O)N[C@@H](CC(C)C)C(=O)N[C@H](C(=O)NCC(N)=O)CSCC(=O)N[C@@H](Cc2ccc(F)c(F)c2)C(=O)N(C)[C@@H](Cc2ccccc2)C(=O)N1C [Example 9227] ({CH2CO}-[Phe(3,4-F2)][NMeF][NMeNle][dHyp]DV[NMeF]Y[dHyp]WYLCG-NH2; thioether N-13) | 1 to 9.9
CCCC[C@H]1C(=O)N2C[C@H](O)C[C@@H]2C(=O)N[C@@H](CC(=O)O)C(=O)N[C@@H](C(C)C)C(=O)N(C)[C@@H](Cc2ccccc2)C(=O)N[C@@H](CC(=O)O)C(=O)N2C[C@H](O)C[C@@H]2C(=O)N[C@@H](Cc2c[nH]c3ccccc23)C(=O)N[C@@H](Cc2ccc(O)cc2)C(=O)N[C@@H](CCCN)C(=O)N[C@H](C(=O)NCC(N)=O)CSCC(=O)N[C@@H](Cc2cc(F)c(F)c(F)c2)C(=O)N(C)[C@@H](Cc2ccccc2)C(=O)N1C [Example 9346] ({CH2CO}-[Phe(3,4,5-F3)][NMeF][NMeNle][d(cisHyp)]DV[NMeF]D[d(cisHyp)]WY[Orn]CG-NH2; thioether N-13) | 1 to 9.9
CCCC[C@H]1C(=O)N(C)[C@@H](CCCC)C(=O)N[C@@H](CC(C)C)C(=O)N[C@H](C(=O)NCC(N)=O)CSCC(=O)N[C@@H](Cc2ccc(O)cc2)C(=O)N(C)[C@@H](C)C(=O)N[C@@H](CC(N)=O)C(=O)N2CCC[C@H]2C(=O)N[C@@H](CN)C(=O)N[C@@H](CCC(N)=O)C(=O)N2C[C@H](O)C[C@H]2C(=O)N[C@@H](Cc2c[nH]c3ccccc23)C(=O)N[C@@H](CCN)C(=O)N[C@@H](Cc2cn(CC(=O)O)c3ccccc23)C(=O)N1C [Example 5259] ({CH2CO}-Y[NMeA]NP[Dap]Q[Hyp]W[Dab][Trp(1-CH2COOH)][NMeNle][NMeNle]LCG-NH2; thioether N-14) | 1 to 9.9
CCCC[C@H]1C(=O)N2C[C@H](O)C[C@@H]2C(=O)N[C@@H](CC(=O)O)C(=O)N[C@@H](C(C)C)C(=O)N(C)[C@H](Cc2ccccc2)C(=O)N[C@@H](CCCCN)C(=O)N2C[C@H](O)C[C@@H]2C(=O)N[C@@H](Cc2c[nH]c3ccccc23)C(=O)N[C@@H](Cc2ccc(O)cc2)C(=O)N[C@@H](CCCN)C(=O)N[C@H](C(=O)NCC(N)=O)CSCC(=O)N[C@@H](Cc2ccc(F)c(F)c2)C(=O)N(C)[C@@H](Cc2ccccc2)C(=O)N1C [Example 9307] ({CH2CO}-[Phe(3,4-F2)][NMeF][NMeNle][d(cisHyp)]DV[dNMeF]K[d(cisHyp)]WY[Orn]CG-NH2; thioether N-13) | 1 to 9.9
CCCC[C@H]1C(=O)N2CCC[C@@H]2C(=O)N[C@@H](CC(=O)O)C(=O)N[C@@H](C(C)C)C(=O)N(C)[C@@H](Cc2ccc(F)cc2)C(=O)N[C@@H](CCN)C(=O)N2CCC[C@@H]2C(=O)N[C@@H](Cc2c[nH]c3ccccc23)C(=O)N[C@@H](Cc2ccc(O)cc2)C(=O)N[C@@H](CC(C)C)C(=O)N[C@H](C(=O)NCC(N)=O)CSCC(=O)N[C@@H](Cc2ccc(F)cc2)C(=O)N(C)[C@@H](Cc2ccccc2)C(=O)N1C [Example 10109] ({CH2CO}-[Phe(4-F)][NMeF][NMeNle][dP]DV[NMePhe(4-F)][Dab][dP]WYLCG-NH2; thioether N-13) | 10 to 99.9
CCCC[C@H]1C(=O)N2CCC[C@@H]2C(=O)N[C@@H](CC(=O)O)C(=O)N[C@@H](C(C)C)C(=O)N(C)[C@@H](Cc2ccccc2)C(=O)N[C@@H](Cc2ccc(O)cc2)C(=O)N2C[C@H](O)C[C@@H]2C(=O)N[C@@H](Cc2c[nH]c3ccccc23)C(=O)N[C@@H](Cc2ccc(O)cc2)C(=O)N[C@@H](CCOC)C(=O)N[C@H](C(=O)NCC(N)=O)CSCC(=O)N[C@@H](Cc2cc(F)c(F)c(F)c2)C(=O)N(C)[C@@H](Cc2ccccc2)C(=O)N1C [Example 10181] ({CH2CO}-[Phe(3,4,5-F3)][NMeF][NMeNle][dP]DV[NMeF]Y[d(cisHyp)]WY[hSer](Me)CG-NH2; thioether N-13) | 1 to 9.9
CCCC[C@H]1C(=O)N(C)[C@@H](CCCC)C(=O)N[C@@H](C)C(=O)N[C@H](C(=O)NCC(N)=O)CSCC(=O)N[C@@H](Cc2ccc(O)cc2)C(=O)N2CCCC[C@H]2C(=O)N[C@@H](CC(=O)O)C(=O)N2CCC[C@H]2C(=O)N[C@@H](CN)C(=O)N[C@@H](CCC(N)=O)C(=O)N2C[C@H](O)C[C@H]2C(=O)N[C@@H](Cc2c[nH]c3ccccc23)C(=O)N[C@@H](CO)C(=O)N[C@@H](Cc2csc3ccccc23)C(=O)N1C [Example 1507] ({CH2CO}-Y[Pip]DP[Dap]Q[Hyp]WS[Bta][NMeNle][NMeNle]ACG-NH2; thioether N-14) | 1 to 9.9
CCCC[C@H]1C(=O)N(C)[C@@H](CCCC)C(=O)N[C@@H](CC(C)C)C(=O)N[C@H](C(=O)NCC(N)=O)CSCC(=O)N[C@@H](Cc2ccc(O)cc2)C(=O)N(C)[C@@H](C)C(=O)N[C@@H](CC(=O)O)C(=O)N2CCC[C@H]2C(=O)N[C@@H](Cc2cnc[nH]2)C(=O)N[C@@H](CCC(=O)O)C(=O)N2C[C@H](O)C[C@H]2C(=O)N[C@@H](Cc2c[nH]c3ccccc23)C(=O)N[C@@H](CO)C(=O)N[C@@H](Cc2cn(CC(=O)O)c3ccccc23)C(=O)N1C [Example 6276] ({CH2CO}-Y[NMeA]DPHE[Hyp]WS[Trp(1-CH2COOH)][NMeNle][NMeNle]LCG-NH2; thioether N-14) | 1 to 9.9
